Source: BindingDB's records for doi:10.1016/j.bmcl.2015.12.052 (Janssen Research and Development, 2016)

Target: T1, P2X purinoceptor 7 (Rattus norvegicus, UniProt Q64663)
T1 sequence (Q64663 whole entry): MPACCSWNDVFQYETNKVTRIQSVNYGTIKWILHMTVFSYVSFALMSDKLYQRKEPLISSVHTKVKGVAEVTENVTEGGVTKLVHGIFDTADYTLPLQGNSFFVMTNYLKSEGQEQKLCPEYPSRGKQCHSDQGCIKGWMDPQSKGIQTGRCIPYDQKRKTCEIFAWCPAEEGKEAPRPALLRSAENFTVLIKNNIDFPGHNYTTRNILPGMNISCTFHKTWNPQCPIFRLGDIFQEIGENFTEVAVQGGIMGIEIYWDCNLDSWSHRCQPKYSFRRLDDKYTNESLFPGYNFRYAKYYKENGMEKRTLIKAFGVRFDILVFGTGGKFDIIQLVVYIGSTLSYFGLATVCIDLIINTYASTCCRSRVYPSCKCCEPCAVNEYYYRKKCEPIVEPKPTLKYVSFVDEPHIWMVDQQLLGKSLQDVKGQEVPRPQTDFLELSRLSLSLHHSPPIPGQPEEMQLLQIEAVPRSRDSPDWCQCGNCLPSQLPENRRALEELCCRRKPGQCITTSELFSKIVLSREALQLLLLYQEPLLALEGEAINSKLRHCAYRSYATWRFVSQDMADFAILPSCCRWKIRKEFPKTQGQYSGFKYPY
Assay: Antagonist activity at rat P2X7 receptor expressed in 1321N1 cells assessed as inhibition of Bz-ATP-induced Ca2+ flux after 30 mins by FLIPR assay

## C[C@H]1Cn2c(nnc2-c2cnccn2)C(=O)N1Cc1ccccc1 [US10047092, 79]
  IC50: > 10 µM
